# Experimental data reported in paper PMC10913730, “Antimicrobial activity of a natural compound and analogs against multi-drug-resistant Gram-positive pathogens” (Microbiology Spectrum, 2024).
# Where two headings read alike, the source gives them in different places.
# Key:
# MRSA isolates = assay: MIC/MBC, CLSI broth microdilution, MRSA isolates; format: cell-based, Staphylococcus aureus
# [1] = pH and Ka of 10-g/L aqueous solutions (pH meter); format: physicochemical; settings: 10-g/L solution in distilled, deionized water, room temperature
# MRSA isolate TCH 1516 [2] = assay: Resistance acquisition during serial passage; format: cell-based, Staphylococcus aureus; settings: serial passage
# Method: MRSA isolate TCH 1516 was grown to the stationary phase (OD650 = 1.0) in 10 mL of MH broth. […] The second highest drug concentration resulting in bacterial growth (OD650 >1.0) was used as the inoculum after a 1:1,000 dilution for subsequent steps, every 24 hours, for up to 21 days.
# [3] = system: Staphylococcus epidermidis isolates; assay: microbe, parasite or virus in culture; format: cell-based
# [4] = system: MRSA isolate SAD05 biofilms; format: cell-based, Staphylococcus aureus; settings: 72-hour biofilms of SAD05, MBEC assay
# MRSA isolate TCH 1516 [5] = assay: Single-step resistance development; format: cell-based, Staphylococcus aureus
# Method: For the single-step study, bacteria were grown to the stationary phase as described above. Bacteria at a concentration of 1E9 CFU were then plated onto C59 and vancomycin-loaded plates containing 1×, 2×, 4×, and 8× MIC concentrations of the therapeutic agents with 1% DMSO. Bacteria were incubated at 37°C for 48 hours, and colony counts were enumerated to calculate the frequency of resistance development, as described in the literature ([45], [46]).
# [6] = system: MRSA isolates SA LL 06 and TCH 1516; assay: Kill kinetics against stationary-phase MRSA; format: cell-based, Staphylococcus aureus; settings: shaking, 37°C
# Method: MRSA isolates, TCH 1516 and SA LL 06, were grown to the stationary phase, and the rate of bacterial killing was determined. Frozen bacterial stocks were streaked onto TSA plates and grown overnight. A single colony was selected and incubated overnight in LB broth at 37°C with constant orbital shaking at 200 RPM. Next, bacterial suspension was washed twice with 150 mM sodium chloride and resuspended in MH broth at a concentration of 1.2E9 CFU/mL. […] Glass tubes containing 5 mL of bacteria and drug solutions were grown in a shaking incubator at 37°C. At 0, 4, 8, and 24 hours, bacterial suspensions were collected, serially diluted, and plated onto a blood agar plate. Bacteria were allowed to grow for 24 hours and were enumerated to yield colony-forming units per milliliter.
# [7] = Staphylococcus aureus, MRSA, 39 evaluated MRSA isolates, CLSI broth microdilution
# [8] = Staphylococcus aureus, MRSA, pH 7.4, MRSA 0606, pH 7.4
# [9] = Staphylococcus aureus, MRSA, pH 7.4, MRSA 0608, pH 7.4
# [10] = Staphylococcus aureus, MRSA, pH 7.4, MRSA 0634, pH 7.4
# [11] = Staphylococcus aureus, MRSA, pH 7.4, MRSA 0641, pH 7.4
# [12] = Staphylococcus aureus, MRSA, pH 7.4, MRSA 0646, pH 7.4
# [13] = Staphylococcus aureus, MRSA, pH 7.4, TCH 1516, pH 7.4
# [14] = Staphylococcus aureus, MRSA, read-out: MBC90, 39 evaluated MRSA isolates, CLSI broth microdilution
# [15] = Staphylococcus aureus, MRSA, pH 5.5, MRSA 0606, pH 5.5
# [16] = Staphylococcus aureus, MRSA, pH 5.5, MRSA 0608, pH 5.5
# [17] = Staphylococcus aureus, MRSA, pH 5.5, MRSA 0634, pH 5.5
# [18] = Staphylococcus aureus, MRSA, pH 5.5, MRSA 0641, pH 5.5
# [19] = Staphylococcus aureus, MRSA, pH 5.5, MRSA 0646, pH 5.5
# [20] = Staphylococcus aureus, MRSA, pH 5.5, TCH 1516, pH 5.5
# [21] = Staphylococcus aureus, MRSA, pH 6.5, MRSA 0606, pH 6.5
# [22] = Staphylococcus aureus, MRSA, pH 6.5, MRSA 0608, pH 6.5
# [23] = Staphylococcus aureus, MRSA, pH 6.5, MRSA 0634, pH 6.5
# [24] = Staphylococcus aureus, MRSA, pH 6.5, MRSA 0641, pH 6.5
# [25] = Staphylococcus aureus, MRSA, pH 6.5, MRSA 0646, pH 6.5
# [26] = Staphylococcus aureus, MRSA, pH 6.5, TCH 1516, pH 6.5
# [27] = 21 Staphylococcus epidermidis isolates
smiles,measurement,setting,value
[K+].[K+].[O-]c1c(Cl)cc(Cl)cc1-c1cc(Cl)cc(Cl)c1[O-] [C59K],MIC90,MRSA isolates; [7],2 µg/mL
same,MBC,MRSA isolates; [8],6 µg/mL
same,MIC,MRSA isolates; [8],2 µg/mL
same,MBC,MRSA isolates; [9],4 µg/mL
same,MIC,MRSA isolates; [9],4 µg/mL
same,MBC,MRSA isolates; [10],6 µg/mL
same,MIC,MRSA isolates; [10],2 µg/mL
same,MBC,MRSA isolates; [11],4 µg/mL
same,MIC,MRSA isolates; [11],2 µg/mL
same,MBC,MRSA isolates; [12],4 µg/mL
same,MIC,MRSA isolates; [12],2 µg/mL
same,MBC,MRSA isolates; [13],4 µg/mL
same,MIC,MRSA isolates; [13],2 µg/mL
same,MBC,MRSA isolates; [14],4 µg/mL
same,pH of solution,[1],greater than 10
"CC(=O)NC[C@H]1CN(c2ccc(N3CCOCC3)c(F)c2)C(=O)O1 [Linezolid, linezolid, reference compound]",MBC,"MRSA isolates; Staphylococcus aureus, 39 evaluated MRSA isolates, CLSI broth microdilution, read-out: MBC90",> 32 µg/mL
same,MIC90,"MRSA isolates; Staphylococcus aureus, 39 evaluated MRSA isolates, CLSI broth microdilution, read-out: MIC90",4 µg/mL
same,increase in MIC,MRSA isolate TCH 1516 [2]; after 21 days,16 fold
"CN[C@H](CC(C)C)C(=O)N[C@H]1C(=O)N[C@@H](CC(N)=O)C(=O)N[C@H]2C(=O)N[C@H]3C(=O)N[C@H](C(=O)N[C@H](C(=O)O)c4cc(O)cc(O)c4-c4cc3ccc4O)[C@H](O)c3ccc(c(Cl)c3)Oc3cc2cc(c3O[C@@H]2O[C@H](CO)[C@@H](O)[C@H](O)[C@H]2O[C@H]2C[C@](C)(N)[C@H](O)[C@H](C)O2)Oc2ccc(cc2Cl)[C@H]1O [Vancomycin, vancomycin, reference compound]",MBC,"MRSA isolates; MRSA 0606, pH 7.4",2 µg/mL
same,MIC,"MRSA isolates; MRSA 0606, pH 7.4",2 µg/mL
same,MBC,"MRSA isolates; MRSA 0608, pH 7.4",6 µg/mL
same,MIC,"MRSA isolates; MRSA 0608, pH 7.4",2 µg/mL
same,MBC,"MRSA isolates; MRSA 0634, pH 7.4",6 µg/mL
same,MIC,"MRSA isolates; MRSA 0634, pH 7.4",2 µg/mL
same,MBC,"MRSA isolates; MRSA 0641, pH 7.4",4 µg/mL
same,MIC,"MRSA isolates; MRSA 0641, pH 7.4",1 µg/mL
same,MBC,"MRSA isolates; MRSA 0646, pH 7.4",6 µg/mL
same,MIC,"MRSA isolates; MRSA 0646, pH 7.4",2 µg/mL
same,MIC90,MRSA isolates; [7],2 µg/mL
same,MIC,"MRSA isolates; Staphylococcus aureus, MRSA, SA LL 06, as given for the kill kinetic assay",1 µg/mL
same,MIC,"MRSA isolates; Staphylococcus aureus, MRSA, TCH 1516, as given for the kill kinetic assay",4 µg/mL
same,MBC,MRSA isolates; [15],2 µg/mL
same,MIC,MRSA isolates; [15],2 µg/mL
same,MBC,MRSA isolates; [16],4 µg/mL
same,MIC,MRSA isolates; [16],4 µg/mL
same,MBC,MRSA isolates; [17],8 µg/mL
same,MIC,MRSA isolates; [17],2 µg/mL
same,MBC,MRSA isolates; [18],2 µg/mL
same,MIC,MRSA isolates; [18],2 µg/mL
same,MBC,MRSA isolates; [19],8 µg/mL
same,MIC,MRSA isolates; [19],2 µg/mL
same,MBC,MRSA isolates; [20],4 µg/mL
same,MIC,MRSA isolates; [20],2 µg/mL
same,MBC,"MRSA isolates; Staphylococcus aureus, MRSA, pH 5.5, read-out: Average MBC, average of six MRSA isolates, pH 5.5",4.7 µg/mL
same,MIC,"MRSA isolates; Staphylococcus aureus, MRSA, pH 5.5, read-out: Average MIC, average of six MRSA isolates, pH 5.5",2.3 µg/mL
same,MBC,MRSA isolates; [21],4 µg/mL
same,MIC,MRSA isolates; [21],1 µg/mL
same,MBC,MRSA isolates; [22],2 µg/mL
same,MIC,MRSA isolates; [22],2 µg/mL
same,MBC,MRSA isolates; [23],4 µg/mL
same,MIC,MRSA isolates; [23],2 µg/mL
same,MBC,MRSA isolates; [24],2 µg/mL
same,MIC,MRSA isolates; [24],1 µg/mL
same,MBC,MRSA isolates; [25],2 µg/mL
same,MIC,MRSA isolates; [25],2 µg/mL
same,MBC,MRSA isolates; [26],2 µg/mL
same,MIC,MRSA isolates; [26],1 µg/mL
same,MBC,"MRSA isolates; Staphylococcus aureus, MRSA, pH 6.5, read-out: Average MBC, average of six MRSA isolates, pH 6.5",2.3 µg/mL
same,MIC,"MRSA isolates; Staphylococcus aureus, MRSA, pH 6.5, read-out: Average MIC, average of six MRSA isolates, pH 6.5",1.5 µg/mL
same,MBC,"MRSA isolates; Staphylococcus aureus, MRSA, pH 7.4, read-out: Average MBC, average of six MRSA isolates, pH 7.4",4.2 µg/mL
same,MIC,"MRSA isolates; Staphylococcus aureus, MRSA, pH 7.4, read-out: Average MIC, average of six MRSA isolates, pH 7.4",1.7 µg/mL
same,MBC,MRSA isolates; [14],16 µg/mL
same,MBC,"MRSA isolates; TCH 1516, pH 7.4",1 µg/mL
same,MIC,"MRSA isolates; TCH 1516, pH 7.4",1 µg/mL
same,change of MIC and MBC with the reduction in pH,"MRSA isolates; six MRSA isolates, pH lowered to 5.5",increased
same,MBC range,[3]; [27],2 to 16 µg/mL
same,MIC range,[3]; [27],1 to 8 µg/mL
same,MIC90,[3]; Staphylococcus epidermidis,4 µg/mL
same,MBC,"[3]; Staphylococcus epidermidis, read-out: MBC90",8 µg/mL
same,initial increase in MIC,"MRSA isolate TCH 1516 [2]; within 7 days, stable thereafter",sixfold
same,concentration that completely eradicated biofilms,[4],did not demonstrate activity against MRSA biofilms
same,frequency of resistance acquisition,"MRSA isolate TCH 1516 [5]; TCH 1516, 2× MIC",1.83 × 10^−8 ± 7.10 × 10^−9
same,frequency of resistance acquisition,"MRSA isolate TCH 1516 [5]; TCH 1516, 4× MIC",1.56 × 10^−9 ± 7.12 × 10^−10
same,frequency of resistance acquisition,"MRSA isolate TCH 1516 [5]; TCH 1516, 8× MIC",5.77 × 10^−10 ± 2.77 × 10^−10
same,growth on drug-loaded plates,"MRSA isolate TCH 1516 [5]; TCH 1516 stationary phase, C59 as low as 2× MIC, vancomycin up to 8× MIC",bacterial growth was observed
same,bacterial killing after 24 hours,"[6]; stationary-phase SA LL 06, C59 at 1× and 2× MIC",complete lack of bacterial inhibition
same,bacterial killing after 24 hours,[6]; stationary-phase TCH 1516,significantly higher bacterial burden
